Laboratory results: ChEMBL document CHEMBL6182883, “Discovery of a series of novel 3-sulfonamido benzoic acid derivatives as promising P2Y14R antagonists for acute lung injury” (Eur J Med Chem, 2025)
In brackets after ≈: the same amount, converted by molar mass. Blank lines part the entries; values can stand above or below the molecule they belong to. Activity calls are given as the source filed them. The rule behind the calls is not given here.

What was measured:
[1] = biological target: T1, P2Y purinoceptor 14 (Homo sapiens) (UniProt Q15391); experiment: Antagonist activity at human P2Y14R expressed in HEK293 cells assessed as inhibition of UDPG-induced Ca2+ level at 5 uM by Fluo-4 dye based fluorescence assay relative to control; type: functional, cell-based
T1 sequence (whole entry): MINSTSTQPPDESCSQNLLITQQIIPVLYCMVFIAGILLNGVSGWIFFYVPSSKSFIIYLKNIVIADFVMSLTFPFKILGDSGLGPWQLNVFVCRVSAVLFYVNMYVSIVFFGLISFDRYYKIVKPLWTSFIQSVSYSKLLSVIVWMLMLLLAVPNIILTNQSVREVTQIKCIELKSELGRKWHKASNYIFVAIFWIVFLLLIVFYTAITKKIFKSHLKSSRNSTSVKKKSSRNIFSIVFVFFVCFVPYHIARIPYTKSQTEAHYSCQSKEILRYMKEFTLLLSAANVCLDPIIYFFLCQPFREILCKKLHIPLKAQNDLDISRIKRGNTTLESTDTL

[2] = biological target: T2, P2Y purinoceptor 14 (Homo sapiens, UniProt Q15391); experiment: Antagonist activity at human P2Y14R expressed in HEK293 cells assessed as inhibition of UDPG-induced Ca2+ level by Fluo-4 dye based fluorescence assay; type: functional, cell-based
T2 sequence (Q15391 whole entry): T1 sequence (whole entry)

[3] = biological target: T1, P2Y purinoceptor 14 (Homo sapiens); experiment: (§1) Binding affinity to P2Y14R (unknown origin) assessed as increase in response unit by surface plasmon resonance assay; settings: filed as antagonist
[4] = biological target: T2, P2Y purinoceptor 14; experiment: as §1
[5] = Cmax in SD […] at 5 mg/kg, iv; type: ADME, organism-based; settings: in vivo
[6] = Half life in SD […] at 5 mg/kg, iv; type: ADME, organism-based; settings: in vivo
[7] = Tmax in SD […] at 5 mg/kg, iv; type: ADME, organism-based; settings: in vivo
[8] = AUC (0 to 24 hrs) in SD […] at 5 mg/kg, iv; type: ADME, organism-based; settings: in vivo
[9] = Cmax in SD […] at 10 mg/kg, po; type: ADME, organism-based; settings: in vivo
[10] = Half life in SD […] at 10 mg/kg, po; type: ADME, organism-based; settings: in vivo
[11] = Tmax in SD […] at 10 mg/kg, po; type: ADME, organism-based; settings: in vivo
[12] = AUC (0 to 24 hrs) in SD […] at 10 mg/kg, po; type: ADME, organism-based; settings: in vivo
[13] = Clearance in SD […] at 10 mg/kg, po; type: ADME, organism-based; settings: in vivo
[14] = Oral bioavailability in SD […] at 10 mg/kg; type: ADME, organism-based; settings: in vivo
[15] = Aqueous solubility of the compound in pH 7.4 PBS buffer measured after 24 hrs by shake flask method; type: physicochemical
[16] = Aqueous solubility of the compound in pH 4 PBS buffer measured after 24 hrs by shake flask method; type: physicochemical
[17] = test system: Mus musculus; experiment: (§2) Antiinflammatory activity in LPS-induced C57BL/6 mouse ALI model assessed as reduction in neutrophil infiltration at 2 mg/kg, po administered once daily via gavage for 7 days followed by endotoxin challenge at 1 hr post last dose and subsequent LPS stimulation and measured after 24 hrs by H and E staining based histopathological assay; type: functional, organism-based; settings: time 8.0 day
[18] = test system: Mus musculus; experiment: as §2, with “interstitial hemorrhage” for “neutrophil infiltration”; type: functional, organism-based; settings: time 8.0 day
[19] = test system: Mus musculus; experiment: as §2, with “in interstitial hemorrhage” for “in neutrophil infiltration”, “at 6” for “at 2”; type: functional, organism-based; settings: time 8.0 day
[20] = test system: Mus musculus; experiment: as §2, with “in alveolar wall thickening” for “in neutrophil infiltration”, “at 6” for “at 2”; type: functional, organism-based; settings: time 8.0 day
[21] = test system: Mus musculus; experiment: as §2, with “at 6” for “at 2”; type: functional, organism-based; settings: time 8.0 day
[22] = test system: Mus musculus; experiment: as §2, with “as appearance of intact alveolar structures” for “as reduction in neutrophil infiltration”, “at 6” for “at 2”; type: functional, organism-based; settings: time 8.0 day
[23] = test system: Mus musculus; experiment: as §2, with “inflammatory response in lung” for “neutrophil infiltration at 2 mg/kg, po”, “via oral” for “via”; type: functional, organism-based; settings: dose 2-6 mg/kg, time 8.0 day
[24] = test system: Mus musculus; experiment: (§3) Antiinflammatory activity in LPS-induced C57BL/6 mouse ALI model assessed as reduction in IL-1beta expression in BALF at 2 to 6 mg/kg, po administered once daily via gavage for 7 days followed by endotoxin challenge at 1 hr post last dose and subsequent LPS stimulation and measured after 24 hrs by ELISA; type: functional, organism-based; settings: dose 2-6 mg/kg, time 8.0 day
[25] = test system: Mus musculus; experiment: Antiinflammatory activity in LPS-induced C57BL/6 mouse ALI model assessed as reduction in IL-6 expression in BALF at 2 to 6 mg/kg, po administered once daily via gavage for 7 days followed by endotoxin challenge at 1 hr post last dose and subsequent LPS stimulation and measured after 24 hrs by ELISA; type: functional, organism-based; settings: dose 2-6 mg/kg, time 8.0 day
[26] = test system: Mus musculus; experiment: as §3, with “TNF-alpha” for “IL-1beta”; type: functional, organism-based; settings: dose 2-6 mg/kg, time 8.0 day
[27] = test system: Mus musculus; experiment: Antiinflammatory activity in LPS-induced C57BL/6 mouse ALI model assessed as reduction in MPO level in BALF at 6 mg/kg, po administered once daily via gavage for 7 days followed by endotoxin challenge at 1 hr post last dose and subsequent LPS stimulation and measured after 24 hrs by ELISA; type: functional, organism-based; settings: time 8.0 day

Structure (SMILES): O=C(O)c1cc(NS(=O)(=O)Cc2ccc(Br)cc2)cc(-c2ccc(C3CCNCC3)cc2)c1
inhibition ([1]; filed as antagonist): 83.1%

Structure (SMILES): O=C(O)c1cc(NS(=O)(=O)CCc2ccccc2F)cc(-c2ccc(C3CCNCC3)cc2)c1
inhibition ([1]; filed as antagonist): 86.4%
IC50 [2]: 38.2 nM

Structure (SMILES): O=C(O)c1cc(NS(=O)(=O)CCc2ccc(F)cc2)cc(-c2ccc(C3CCNCC3)cc2)c1
inhibition ([1]; filed as antagonist): 85.4%
IC50 [2]: 42.6 nM

Structure (SMILES): O=C(O)c1cc(NS(=O)(=O)CCc2ccc(C(F)(F)F)cc2)cc(-c2ccc(C3CCNCC3)cc2)c1
inhibition ([1]; filed as antagonist): 99.6%
IC50 [2]: 5.6 nM
Activity [3]: Dose-dependent-effect
Kd [4]: 1730 nM
Cmax [5]: 731 ng/mL
half-life [6]: 156 min
Tmax [7]: 56 min
AUC [8]: 1764 µg·h/L
Cmax [9]: 984 ng/mL
half-life [10]: 270 min
Tmax [11]: 1.55 h
AUC(0-t) [12]: 2170 ng·h/mL
CL/F [13]: 18.6 mL/min/kg
bioavailability [14]: 44%
solubility thermodynamic at 24 h [15]: 108 µg/mL (≈ 203 µM)
solubility thermodynamic at 24 h [16]: 127 µg/mL (≈ 238 µM)
Activity [17]: Active
Activity [18]: Not active; No Significant Interstitial Hemorrhage Observed
Activity [19]: Active; Substantial Reduction Observed
Activity [20]: Active
Activity [21]: Active
Activity [22]: Active
Activity [23]: Dose-dependent-effect
Activity [24]: Active
Activity [25]: Active
Activity [26]: Active
Activity [27]: Active

Structure (SMILES): O=C(O)c1cc(NS(=O)(=O)Cc2ccccc2F)cc(-c2ccc(C3CCNCC3)cc2)c1
inhibition ([1]; filed as antagonist): 80.6%

Structure (SMILES): O=C(O)c1cc(NS(=O)(=O)Cc2ccccc2)cc(-c2ccc(C3CCNCC3)cc2)c1
inhibition ([1]; filed as antagonist): 81.6%

Structure (SMILES): O=C(O)c1cc(NS(=O)(=O)Cc2ccc(F)cc2)cc(-c2ccc(C3CCNCC3)cc2)c1
inhibition ([1]; filed as antagonist): 82.8%

Structure (SMILES): COc1ccc(S(=O)(=O)Nc2cc(C(=O)O)cc(-c3ccc(C4CCNCC4)cc3)c2)cc1
inhibition ([1]; filed as antagonist): 70.8%

Structure (SMILES): O=C(O)c1cc(NS(=O)(=O)Cc2ccc(C(F)(F)F)cc2)cc(-c2ccc(C3CCNCC3)cc2)c1
inhibition ([1]; filed as antagonist): 96.5%
IC50 [2]: 24.2 nM

Structure (SMILES): COc1cccc(S(=O)(=O)Nc2cc(C(=O)O)cc(-c3ccc(C4CCNCC4)cc3)c2)c1
inhibition ([1]; filed as antagonist): 47.8%

Structure (SMILES): O=C(O)c1cc(NS(=O)(=O)CCc2ccccc2)cc(-c2ccc(C3CCNCC3)cc2)c1
inhibition ([1]; filed as antagonist): 82.7%

Structure (SMILES): O=C(O)c1cc(NS(=O)(=O)c2ccc(OC(F)(F)F)cc2)cc(-c2ccc(C3CCNCC3)cc2)c1
inhibition [1]: 32.1%

Structure (SMILES): O=C(O)c1cc(NS(=O)(=O)Cc2ccc([N+](=O)[O-])cc2)cc(-c2ccc(C3CCNCC3)cc2)c1
inhibition ([1]; filed as antagonist): 88.6%
IC50 [2]: 20.6 nM

Next, values leading:

inhibition ([1]; filed as antagonist): 79.4%
Structure (SMILES): O=C(O)c1cc(NS(=O)(=O)c2ccc(-c3ccc(Cl)cc3)cc2)cc(-c2ccc(C3CCNCC3)cc2)c1

inhibition ([1]; filed as antagonist): 68.9%
Structure (SMILES): O=C(O)c1cc(NS(=O)(=O)c2ccc(-c3ccc(Br)cc3)cc2)cc(-c2ccc(C3CCNCC3)cc2)c1

inhibition ([1]; filed as antagonist): 80.9%
Structure (SMILES): O=C(O)c1cc(NS(=O)(=O)c2ccc(Cl)cc2)cc(-c2ccc(C3CCNCC3)cc2)c1

inhibition ([1]; filed as antagonist): 50.6%
Structure (SMILES): Cc1ccc(S(=O)(=O)Nc2cc(C(=O)O)cc(-c3ccc(C4CCNCC4)cc3)c2)cc1

inhibition ([1]; filed as antagonist): 43.6%
Structure (SMILES): O=C(O)c1cc(NS(=O)(=O)c2ccc(-c3ccccc3F)cc2)cc(-c2ccc(C3CCNCC3)cc2)c1

inhibition ([1]; filed as antagonist): 82.3%
Structure (SMILES): O=C(O)c1cc(NS(=O)(=O)c2ccccc2F)cc(-c2ccc(C3CCNCC3)cc2)c1
